Test results taken from the supplement of paper PMC10307832.

Key:
Experiment in all cases: relative viability (nuclei count vs DMSO), 5 days (fraction); higher = more cells survive
GW-2580 + Navitoclax = compound: COC1=CC=C(C=C1)COC2=C(C=C(C=C2)CC3=CN=C(N=C3N)N)OC [GW-2580] + CC1(C)CCC(c2ccc(Cl)cc2)=C(CN2CCN(c3ccc(C(=O)NS(=O)(=O)c4ccc(N[C@H](CCN5CCOCC5)CSc5ccccc5)c(S(=O)(=O)C(F)(F)F)c4)cc3)CC2)C1 [Navitoclax] (partner 0.5 µM)
How it was run: (§1)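 After 5 days of treatment, lung cancer cells in 1536-well plates were fixed and stained in a single step (final 0.05% Triton X-100, 1% formaldehyde, 1 ug/ml Hoechst) and their nuclei counted on 4× images. Treatment had been applied by pin tool the day after seeding as one drug alone or as a fixed anchor-drug dose with five library-drug doses (not always all listed) in √10 steps. Relative viability is the nuclei count of treated wells divided by that of vehicle wells, and values are medians of duplicate plates.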

GW-2580 + Pictilisib = compound: COC1=CC=C(C=C1)COC2=C(C=C(C=C2)CC3=CN=C(N=C3N)N)OC [GW-2580] + CS(=O)(=O)N1CCN(Cc2cc3nc(-c4cccc5[nH]ncc45)nc(N4CCOCC4)c3s2)CC1 [Pictilisib] (partner 1 µM)
How it was run: as §1

GW-2580 + Phenformin = compound: COC1=CC=C(C=C1)COC2=C(C=C(C=C2)CC3=CN=C(N=C3N)N)OC [GW-2580] + N=C(N)NC(=N)NCCc1ccccc1 [Phenformin] (partner 250 µM)
How it was run: as §1

Fedratinib + Luminespib = compound: Cc1cnc(Nc2ccc(OCCN3CCCC3)cc2)nc1Nc1cccc(S(=O)(=O)NC(C)(C)C)c1 [Fedratinib] + CCNC(=O)c1noc(-c2cc(C(C)C)c(O)cc2O)c1-c1ccc(CN2CCOCC2)cc1 [Luminespib] (partner 0.01 µM)
How it was run: as §1

Fedratinib + Alpelisib = compound: Cc1cnc(Nc2ccc(OCCN3CCCC3)cc2)nc1Nc1cccc(S(=O)(=O)NC(C)(C)C)c1 [Fedratinib] + Cc1nc(NC(=O)N2CCC[C@H]2C(N)=O)sc1-c1ccnc(C(C)(C)C(F)(F)F)c1 [Alpelisib] (partner 2 µM)
How it was run: as §1

| Cell Line | relative viability (GW-2580 + Navitoclax; first compound 0.08 µM) | relative viability (GW-2580 + Navitoclax; first compound 0.8 µM) | relative viability (GW-2580 + Navitoclax; first compound 2.53 µM) | relative viability (GW-2580 + Navitoclax; first compound 8 µM) | relative viability (GW-2580 + Pictilisib; first compound 0.08 µM) | relative viability (GW-2580 + Pictilisib; first compound 0.8 µM) | relative viability (GW-2580 + Pictilisib; first compound 2.53 µM) | relative viability (GW-2580 + Pictilisib; first compound 8 µM) | relative viability (GW-2580 + Phenformin; first compound 0.08 µM) | relative viability (GW-2580 + Phenformin; first compound 0.8 µM) | relative viability (GW-2580 + Phenformin; first compound 2.53 µM) | relative viability (GW-2580 + Phenformin; first compound 8 µM) | relative viability (Fedratinib + Luminespib; first compound 0.1 µM) | relative viability (Fedratinib + Luminespib; first compound 0.3162 µM) | relative viability (Fedratinib + Luminespib; first compound 1 µM) | relative viability (Fedratinib + Alpelisib; first compound 0.1 µM) | relative viability (Fedratinib + Alpelisib; first compound 0.3162 µM) | relative viability (Fedratinib + Alpelisib; first compound 1 µM) |
| --- | --- | --- | --- | --- | --- | --- | --- | --- | --- | --- | --- | --- | --- | --- | --- | --- | --- | --- |
| NCI-H23 | 0.77 | 0.75 | 0.774 | 0.87 | 0.632 | 0.46 | 0.367 | 0.502 | 0.872 | 0.768 | 0.798 | 0.851 | 0.193 | 0.212 | 0.204 | 0.585 | 0.743 | 0.598 |
| NCI-H322M | 1.07 | 1.31 | 1.11 | 1.22 | 0.493 | 0.534 | 0.501 | 0.531 | 0.787 | 0.819 | 0.866 | 0.782 | 0.59 | 0.849 | 0.49 | 0.814 | 0.75 | 0.771 |
| NCI-H441 | 1.03 | 0.33 | 0.575 | 0.515 | 0.505 | 0.587 | 0.379 | 0.436 | 0.997 | 0.852 | 0.773 | 1.05 | 0.331 | 0.262 | 0.343 | 0.607 | 0.655 | 0.557 |
| NCI-H460 | 1.46 | 1.37 | 0.941 | 1.15 | 0.369 | 0.452 | 0.248 | 0.4 | 0.713 | 0.576 | 0.494 | 0.528 | 0.0244 | 0.0389 | 0.0213 | 0.536 | 0.581 | 0.259 |
| NCI-H520 | 1.18 | 1.3 | 1.45 | 1.25 | 0.35 | 0.287 | 0.279 | 0.332 | 0.79 | 0.59 | 0.592 | 0.587 | 0.265 | 0.194 | 0.23 | 0.912 | 0.845 | 0.805 |
| NCI-H596 | 1.05 | 0.982 | 0.94 | 0.9 | 0.4 | 0.407 | 0.343 | 0.392 | 0.92 | 0.657 | 0.811 | 0.804 | 0.962 | 1.2 | 0.875 | 0.459 | 0.576 | 0.506 |
| NCI-H647 | 1.09 | 1.19 | 1.18 | 1.3 | 0.37 | 0.515 |  | 0.48 | 0.605 | 0.623 | 0.401 | 0.661 | 0.15 | 0.209 | 0.177 | 1.13 | 1.09 | 0.809 |
| NCI-H727 | 0.454 | 0.538 | 0.402 | 0.384 | 0.355 | 0.622 | 0.349 | 0.372 | 0.662 | 0.574 | 0.499 | 0.652 | 0.269 | 0.301 | 0.375 | 0.597 | 0.609 | 0.532 |
| NCI-H838 | 1.09 | 1.2 | 1.03 | 1.36 | 0.569 | 0.462 | 0.326 | 0.614 | 0.651 | 0.59 | 0.549 | 0.648 | 0.454 | 0.379 | 0.334 | 0.979 | 0.954 | 0.954 |
| NCI-H1355 | 0.984 | 1.08 | 0.827 | 0.944 | 0.476 | 0.43 | 0.274 | 0.421 | 0.426 | 0.496 | 0.347 | 0.397 | 0.59 | 0.702 | 0.696 | 0.731 | 0.853 | 0.832 |
| NCI-H1395 | 1.08 | 1.06 | 1.13 | 1.11 | 0.626 | 0.584 | 0.561 | 0.632 | 0.452 | 0.484 | 0.421 | 0.438 | 0.661 | 0.868 | 0.62 | 0.885 | 1 | 1.39 |
| NCI-H1437 | 1.16 | 1.15 | 0.928 | 0.879 | 0.465 | 0.514 | 0.378 | 0.387 | 0.339 | 0.31 | 0.332 | 0.357 | 1.11 | 1.04 | 1.13 | 0.826 | 0.975 | 0.859 |
| NCI-H1651 | 1.04 | 1.15 | 0.95 | 1.18 | 0.65 | 0.707 | 0.597 | 0.599 | 0.36 | 0.371 | 0.304 | 0.358 | 0.764 | 0.716 | 1.09 | 1.16 | 1.01 | 0.9 |
| NCI-H1666 | 0.946 | 1.1 | 0.856 | 0.69 | 0.55 | 0.653 | 0.316 | 0.573 | 0.581 | 0.607 | 0.604 | 0.554 | 0.92 | 0.977 | 1.01 | 0.872 | 1.05 | 1.02 |
| NCI-H1734 | 1.04 | 0.935 | 0.857 | 0.76 | 0.491 | 0.478 | 0.431 | 0.436 | 0.35 | 0.374 | 0.38 | 0.359 | 0.179 | 0.205 | 0.185 | 0.627 | 0.654 | 0.62 |
| NCI-H1755 | 1.04 | 1.04 | 0.894 | 0.831 | 0.489 | 0.461 | 0.321 | 0.372 | 0.667 | 0.631 | 0.326 | 0.594 | 0.367 | 0.595 | 0.381 | 0.969 | 0.886 | 0.82 |
| NCI-H1792 | 0.534 | 0.816 | 0.26 | 0.668 | 0.279 | 0.272 | 0.171 | 0.223 | 0.4 | 0.226 | 0.146 | 0.313 | 0.231 | 0.419 | 0.362 | 0.458 | 0.662 | 0.666 |
